Test results published in publication PMC5814316 (Experimental Animals, 2017).

How the values were obtained:
[1] = Pharmacokinetic study in rats: CP and DECP with and without KTZ, KTZ alone; assay type: in vivo; conditions: rat, plasma; for AUC(0-inf): AUC0→∞; for MRT inf: MRT0–∞
[2] = biological target: T1, CYP3A4 (Homo sapiens, UniProt P08684); assay: in vitro; conditions: human liver microsomes
[3] = tested on: CYP2C9; conditions: C-4 oxidation of CP; cited from earlier work
[4] = tested on: CYP3A4; conditions: cited from earlier work
[5] = tested on: CYP3A4; conditions: C-4 oxidation of CP; cited from earlier work
[6] = Stability of DECP, CP and KTZ in rat plasma under storage conditions; assay type: physicochemical; conditions: for Short term stability, Measured / Short term stability, RE: 25 °C for 3 h; for stability throughout the whole manipulation and storage processes: short term, long term, freeze-thaw; for Long term stability, Measured / Long term stability, RE: −80 °C for 3 months; for Three freeze−thaw cycles, Measured / Three freeze−thaw cycles, RE: −80°C to 25°C
[7] = tested on: CYP2B6; conditions: C-4 oxidation of CP; cited from earlier work
[8] = suffering and junctival irritation of the operator; cited from earlier work
[9] = biological target: T1, CYP3A4; assay: KTZ inhibition of CP conversion to DECP in HLM; conditions: human liver microsomes, probe CP (cyclophosphamide)
[10] = tested on: rats; assay: Toxicity observation in rats after single dose KTZ; assay type: in vivo, rat
[11] = iv, 10 mg/kg, Group 1 (0 mg/kg KTZ), CP 10 mg/kg i.v., rats
[12] = iv, 10 mg/kg, Group 2 (10 mg/kg KTZ oral, 50 min before), CP 10 mg/kg i.v., rats
[13] = iv, 10 mg/kg, Group 3 (20 mg/kg KTZ oral, 50 min before), CP 10 mg/kg i.v., rats
[14] = iv, 10 mg/kg, Group 4 (40 mg/kg KTZ oral, 50 min before), CP 10 mg/kg i.v., rats

T1 sequence (P08684 whole entry): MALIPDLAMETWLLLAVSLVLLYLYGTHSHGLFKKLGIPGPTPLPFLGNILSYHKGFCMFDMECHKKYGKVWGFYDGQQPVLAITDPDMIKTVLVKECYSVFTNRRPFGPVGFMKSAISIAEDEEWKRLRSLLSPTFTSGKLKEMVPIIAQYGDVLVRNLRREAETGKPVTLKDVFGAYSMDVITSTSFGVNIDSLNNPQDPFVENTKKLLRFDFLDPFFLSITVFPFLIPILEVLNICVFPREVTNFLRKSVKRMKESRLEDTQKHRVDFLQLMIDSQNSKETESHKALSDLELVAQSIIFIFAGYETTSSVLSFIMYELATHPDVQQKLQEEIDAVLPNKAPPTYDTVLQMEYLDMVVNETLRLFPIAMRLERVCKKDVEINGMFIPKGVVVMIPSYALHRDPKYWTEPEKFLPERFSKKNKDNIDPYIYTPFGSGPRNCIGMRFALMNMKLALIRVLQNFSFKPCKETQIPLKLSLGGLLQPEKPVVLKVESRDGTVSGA

Compound: O=P1(N(CCCl)CCCl)NCCCO1 (stereo not drawn) [CP, Cyclophosphamide]
- AUC(0-t) ([1]; iv, 10 mg/kg, AUC0→t, Group 2 (10 mg/kg KTZ oral, 50 min before), CP 10 mg/kg i.v., rats): 21100 ng·h/mL
- AUC(0-t) ([1]; iv, 10 mg/kg, AUC0→t, Group 3 (20 mg/kg KTZ oral, 50 min before), CP 10 mg/kg i.v., rats): 28700 ng·h/mL
- AUC(0-t) ([1]; iv, 10 mg/kg, AUC0→t, Group 4 (40 mg/kg KTZ oral, 50 min before), CP 10 mg/kg i.v., rats): 38200 ng·h/mL
- AUC(0-inf) [1, 11]: 15500 ng·h/mL
- AUC(0-inf) [1, 12]: 21900 ng·h/mL
- AUC(0-inf) [1, 13]: 29600 ng·h/mL
- AUC(0-inf) [1, 14]: 39000 ng·h/mL
- Cmax ([1]; iv, 10 mg/kg, Cmax, Group 1 (0 mg/kg KTZ), CP 10 mg/kg i.v., rats): 9420 ng/mL
- Cmax ([1]; iv, 10 mg/kg, Cmax, Group 2 (10 mg/kg KTZ oral, 50 min before), CP 10 mg/kg i.v., rats): 10400 ng/mL
- Cmax ([1]; iv, 10 mg/kg, Cmax, Group 3 (20 mg/kg KTZ oral, 50 min before), CP 10 mg/kg i.v., rats): 11400 ng/mL
- Cmax ([1]; iv, 10 mg/kg, Cmax, Group 4 (40 mg/kg KTZ oral, 50 min before), CP 10 mg/kg i.v., rats): 9600 ng/mL
- MRT last ([1]; iv, 10 mg/kg, MRT0–t, Group 1 (0 mg/kg KTZ), CP 10 mg/kg i.v., rats): 1.7 ± 0.167 h
- MRT last ([1]; iv, 10 mg/kg, MRT0–t, Group 2 (10 mg/kg KTZ oral, 50 min before), CP 10 mg/kg i.v., rats): 1.72 ± 0.357 h
- MRT last ([1]; iv, 10 mg/kg, MRT0–t, Group 3 (20 mg/kg KTZ oral, 50 min before), CP 10 mg/kg i.v., rats): 2.04 ± 0.293 h
- MRT last ([1]; iv, 10 mg/kg, MRT0–t, Group 4 (40 mg/kg KTZ oral, 50 min before), CP 10 mg/kg i.v., rats): 2.65 ± 0.482 h
- MRT inf [1, 11]: 1.9 ± 0.345 h
- MRT inf [1, 12]: 1.86 ± 0.6 h
- MRT inf [1, 13]: 2.12 ± 0.361 h
- MRT inf [1, 14]: 2.67 ± 0.505 h
- Tmax ([1]; iv, 10 mg/kg, Tmax, Group 1 (0 mg/kg KTZ), CP 10 mg/kg i.v., rats): 0.194 ± 0.086 h
- Tmax ([1]; iv, 10 mg/kg, Tmax, Group 2 (10 mg/kg KTZ oral, 50 min before), CP 10 mg/kg i.v., rats): 0.194 ± 0.086 h
- Tmax ([1]; iv, 10 mg/kg, Tmax, Group 3 (20 mg/kg KTZ oral, 50 min before), CP 10 mg/kg i.v., rats): 0.139 ± 0.086 h
- Tmax ([1]; iv, 10 mg/kg, Tmax, Group 4 (40 mg/kg KTZ oral, 50 min before), CP 10 mg/kg i.v., rats): 0.347 ± 0.327 h
- Km [2]: 160 µM
- share of the total CP bioactivation [3]: 12%
- part of CP dechloroethylated to DECP and CAA [4]: about 10%
- share of the total CP bioactivation [5]: 25%
- Short term stability, Measured ([6]; nominal 20 ng/ml): 20.57 ± 0.81 ng/mL
- Short term stability, RE ([6]; nominal 20 ng/ml): 2.85%
- Short term stability, Measured ([6]; nominal 80 ng/ml): 84.49 ± 2.05 ng/mL
- Short term stability, RE ([6]; nominal 80 ng/ml): 5.61%
- Short term stability, Measured ([6]; nominal 500 ng/ml): 525.40 ± 73.09 ng/mL
- Short term stability, RE ([6]; nominal 500 ng/ml): 5.08%
- stability throughout the whole manipulation and storage processes [6]: stable
- Long term stability, Measured ([6]; nominal 20 ng/ml): 18.79 ± 0.42 ng/mL
- Long term stability, RE ([6]; nominal 20 ng/ml): −6.05%
- Long term stability, Measured ([6]; nominal 80 ng/ml): 81.16 ± 2.40 ng/mL
- Long term stability, RE ([6]; nominal 80 ng/ml): 1.45%
- Long term stability, Measured ([6]; nominal 500 ng/ml): 509.89 ± 68.17 ng/mL
- Long term stability, RE ([6]; nominal 500 ng/ml): 1.98%
- Three freeze−thaw cycles, Measured ([6]; nominal 20 ng/ml): 18.68 ± 0.20 ng/mL
- Three freeze−thaw cycles, RE ([6]; nominal 20 ng/ml): −6.60%
- Three freeze−thaw cycles, Measured ([6]; nominal 80 ng/ml): 78.39 ± 1.43 ng/mL
- Three freeze−thaw cycles, RE ([6]; nominal 80 ng/ml): −2.01%
- Three freeze−thaw cycles, Measured ([6]; nominal 500 ng/ml): 490.26 ± 78.18 ng/mL
- Three freeze−thaw cycles, RE ([6]; nominal 500 ng/ml): −1.95%
- share of the total CP bioactivation [7]: approximately 45%

Compound: O=CCCl [CAA, chloroacetaldehyde]
- exposure level at which dangerous [8]: 45 ppm

Compound: CC(=O)N1CCN(c2ccc(OCC3COC(Cn4ccnc4)(c4ccc(Cl)cc4Cl)O3)cc2)CC1 (stereo not drawn) [KTZ, ketoconazole]
- AUC(0-t) ([1]; po, 20 mg/kg): 4730 ng·h/mL
- Cmax ([1]; po, 20 mg/kg): 2050 ng/mL
- MRT last ([1]; po, 20 mg/kg): 1.86 ± 0.193 h
- Tmax ([1]; po, 20 mg/kg): 0.514 ± 0.399 h
- IC50 [9]: 618 nM
- toxicity (physiological aspects, data not shown) [10]: no obvious toxicity
- Short term stability, Measured ([6]; nominal 10 ng/ml): 9.97 ± 0.23 ng/mL
- Short term stability, RE ([6]; nominal 10 ng/ml): −0.30%
- Short term stability, Measured ([6]; nominal 40 ng/ml): 42.23 ± 0.76 ng/mL
- Short term stability, Measured ([6]; nominal 250 ng/ml): 264.51 ± 38.66 ng/mL
- Short term stability, RE ([6]; nominal 250 ng/ml): 5.80%
- stability throughout the whole manipulation and storage processes [6]: stable
- Long term stability, Measured ([6]; nominal 10 ng/ml): 9.55 ± 0.07 ng/mL
- Long term stability, RE ([6]; nominal 10 ng/ml): −4.50%
- Long term stability, Measured ([6]; nominal 40 ng/ml): 40.04 ± 0.57 ng/mL
- Long term stability, RE ([6]; nominal 40 ng/ml): 0.10%
- Long term stability, Measured ([6]; nominal 250 ng/ml): 259.01 ± 37.39 ng/mL
- Long term stability, RE ([6]; nominal 250 ng/ml): 3.64%
- Three freeze−thaw cycles, Measured ([6]; nominal 10 ng/ml): 9.57 ± 0.23 ng/mL
- Three freeze−thaw cycles, RE ([6]; nominal 10 ng/ml): −4.30%
- Three freeze−thaw cycles, Measured ([6]; nominal 40 ng/ml): 39.46 ± 0.44 ng/mL
- Three freeze−thaw cycles, RE ([6]; nominal 40 ng/ml): −1.35%
- Three freeze−thaw cycles, Measured ([6]; nominal 250 ng/ml): 254.65 ± 38.96 ng/mL
- Three freeze−thaw cycles, RE ([6]; nominal 250 ng/ml): 1.86%
